Consider 62 compounds from patent US20110312941A1, “1,4-DISUBSTITUTED PIPERIDINES AS VASOPRESSIN RECEPTOR VIA ANTAGONISTS” (VANTIA LIMITED, priority 2009, published 2011).

T1 sequence (P37288 whole entry): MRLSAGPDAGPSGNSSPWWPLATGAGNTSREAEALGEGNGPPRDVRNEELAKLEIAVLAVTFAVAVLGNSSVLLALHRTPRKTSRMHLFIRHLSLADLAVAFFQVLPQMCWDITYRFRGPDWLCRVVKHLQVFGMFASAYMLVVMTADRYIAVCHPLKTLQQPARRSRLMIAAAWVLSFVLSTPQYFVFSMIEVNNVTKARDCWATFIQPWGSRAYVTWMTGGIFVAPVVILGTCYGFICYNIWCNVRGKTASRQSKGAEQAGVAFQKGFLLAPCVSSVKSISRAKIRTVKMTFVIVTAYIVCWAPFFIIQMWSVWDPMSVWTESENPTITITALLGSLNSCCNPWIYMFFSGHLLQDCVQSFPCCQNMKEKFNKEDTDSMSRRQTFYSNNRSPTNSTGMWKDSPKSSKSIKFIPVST

The assay addresses T1, cloned human V1a receptor (Homo sapiens, UniProt P37288).
T1 construct: host or cells: human brain astrocytoma 1321N1 cells
Briefly: in vitro functional calcium mobilisation assay (FLIPR), antagonist activity, 1321N1 cells, 250 pM AVP. Conditions: functional pKi derived from pIC50 (Equation 1), FLIPR Ca2+ mobilisation, 1321N1 cells expressing cloned human V1a receptor, read-out: Mean fpKi (Human V1a) (converted). In kind it is cell-based. The method, then: The primary assay which may be used to determine the ability of the compounds of formula (1) to inhibit the vasopressin V1a receptor is an in vitro functional calcium mobilisation assay (FLIPR) that measures antagonist activity at a cloned human V1a receptor. The assay is described below.
The antagonist activity of compounds of formula (1) were determined in a Calcium (Ca2+) mobilisation assay using whole cells (human brain astrocytoma 1321N1 cells, ex Perkin Elmer) genetically modified to stably express a cloned human V1a receptor. Dose response curves were determined by displacement of a single concentration of agonist (250 pM AVP, ex Sigma) with increasing concentrations of compound. A pIC50 value is determined by non-linear regression to a 4-parameter logistic equation and a functional pKi (fpKi) derived using Equation 1.
where A=agonist single conc, and A50=the agonist EC50.
In general terms: A change in cytosolic calcium serves as a functional read-out for many receptors and channels.
`NCc1ccc(N2CCC(C(=O)N3Cc4cccn4Cc4ccccc43)CC2)cc1` [Example 178]: the Ki is 97.7 nM.
Take `CCc1nc2c([nH]1)-c1cc(C)ccc1N(C(=O)C1CCN(c3cccc(C)n3)CC1)CC2` [Example 61]: the Ki is 7.41 nM.
With `COc1cccnc1N1CCC(C(=O)N2CCc3nc(C4CCOCC4)[nH]c3-c3cc(C)ccc32)CC1` [Example 40], the Ki is 1.26 nM.
Then `CCCc1ccc(N2CCC(C(=O)N3CCc4nc(C)[nH]c4-c4cc(Cl)ccc43)CC2)cc1` [Example 96], with 13.5 nM.
On to `CCCc1nc2c([nH]1)-c1cc(C)ccc1N(C(=O)C1CCN(c3cccc(C)n3)CC1)CC2` [Example 62], for which the Ki is 7.41 nM.
Then `O=C(C1CCN(c2cccnc2)CC1)N1Cc2cccn2Cc2ccccc21` [Example 146], with 31.6 nM; and `O=C(C1CCN(c2ccccc2)CC1)N1CCc2nc(N3CCCCC3)[nH]c2-c2cc(Cl)ccc21` [Example 77], with 18.2 nM.
Turning to `COc1ccnc(N2CCC(C(=O)N3CCc4nc(N5CCOCC5)[nH]c4-c4cc(C)ccc43)CC2)c1` [Example 33], the Ki is 0.977 nM.
In the case of `O=C(C1CCN(c2ccncc2)CC1)N1Cc2cccn2Cc2ccccc21` [Example 147], the Ki was 1480 nM.
Turning to `Cc1cccnc1N1CCC(C(=O)N2Cc3cnn(C)c3Nc3cc(Cl)ccc32)CC1` [Example 116], the Ki is 2.69 nM.
`CCCCc1nc2c([nH]1)CCN(C(=O)C1CCN(c3ccc(C)cn3)CC1)c1ccc(C)cc1-2` [Example 27]: the Ki was 4.47 nM.
Next, `COc1ccccc1N1CCC(C(=O)N2Cc3cccn3Cc3ccccc32)CC1` [Example 162]: 3.16 nM.
With `Cc1nc2c([nH]1)-c1cc(Cl)ccc1N(C(=O)C1CCN(c3ccccc3)CC1)CC2` [Example 72], the Ki was 9.12 nM.
In the case of `Cc1ccc(N2CCC(C(=O)N3CCc4nc(N5CCN(C)CC5)[nH]c4-c4cc(Cl)ccc43)CC2)nc1` [Example 52], the Ki is 1.1 nM.
Next, `Cc1ccc2c(c1)Nc1c(cnn1C)CN2C(=O)C1CCN(c2ncccn2)CC1` [Example 102]: 151 nM; `CCc1ccc(N2CCC(C(=O)N3Cc4cnn(C)c4Nc4cc(C)ccc43)CC2)cc1` [Example 132]: 0.741 nM.
Next, `CCn1ncc2c1Nc1cc(Cl)ccc1N(C(=O)C1CCN(c3cc(C)ccn3)CC1)C2` [Example 121]: 0.427 nM.
On to `Cc1nc2c([nH]1)-c1cc(Cl)ccc1N(C(=O)C1CCN(c3ncccn3)CC1)CC2` [Example 7], for which the Ki was 49 nM.
Consider `COc1ccccc1N1CCC(C(=O)N2CCc3nc(C)[nH]c3-c3cc(Cl)ccc32)CC1` [Example 92], for which the Ki is 22.9 nM.
Next, `COc1cccnc1N1CCC(C(=O)N2Cc3cnn(C)c3Nc3cc(C)ccc32)CC1` [Example 113]: 30.2 nM; `O=C(C1CCN(c2cccc([N+](=O)[O-])c2)CC1)N1Cc2cccn2Cc2ccccc21` [Example 173]: 17 nM.
Take `Cc1cccc(N2CCC(C(=O)N3Cc4cnn(C)c4Nc4cc(Cl)ccc43)CC2)c1` [Example 135]: the Ki is 1.29 nM.
Then `CCCc1nc2c([nH]1)-c1cc(Cl)ccc1N(C(=O)C1CCN(c3ccccc3)CC1)CC2` [Example 74], with 15.1 nM; and `O=C(C1CCN(c2ccccn2)CC1)N1CCc2nc(N3CCCCC3)[nH]c2-c2cc(Cl)ccc21` [Example 50], with 24.5 nM.
For `O=C(C1CCN(c2ccccn2)CC1)N1CCc2nc(-c3cccc(F)c3)[nH]c2-c2cc(Cl)ccc21` [Example 55], the Ki was 97.7 nM.
Next, `Cc1ccc(N2CCC(C(=O)N3Cc4cnn(C)c4Nc4cc(C)ccc43)CC2)cc1` [Example 129]: 0.324 nM.
Then `Cc1ccnc(N2CCC(C(=O)N3CCc4nc(C5CCOCC5)[nH]c4-c4cc(C)ccc43)CC2)c1` [Example 38], with 2.24 nM; and `Cc1cncc(N2CCC(C(=O)N3CCc4nc(N5CCOCC5)[nH]c4-c4cc(C)ccc43)CC2)c1` [Example 70], with 6.61 nM; and `COc1ccc(N2CCC(C(=O)N3CCc4nc(N5CCOCC5)[nH]c4-c4cc(C)ccc43)CC2)nc1` [Example 34], with 2.69 nM.
Then `COc1cccc(N2CCC(C(=O)N3Cc4cnn(C)c4Nc4cc(Cl)ccc43)CC2)c1` [Example 137], with 1.78 nM; and `Cc1ccc(N2CCC(C(=O)N3Cc4cccn4Cc4ccccc43)CC2)cc1` [Example 161], with 1.12 nM.
`N#Cc1cccc(N2CCC(C(=O)N3Cc4cccn4Cc4ccccc43)CC2)c1` [Example 170]: the Ki was 25.7 nM.
Then `Cc1ccc(N2CCC(C(=O)N3Cc4cnn(C(C)(C)C)c4Nc4cc(F)ccc43)CC2)nc1` [Example 108], with 5.37 nM; and `Cc1ccc(N2CCC(C(=O)N3Cc4cnn(C)c4Nc4cc(C)ccc43)CC2)nc1` [Example 112], with 2.82 nM.
Next, `O=C(C1CCN(c2ncccn2)CC1)N1Cc2cccn2Cc2ccccc21` [Example 143]: 117 nM; `Cc1ccc2c(c1)Cn1cccc1CN2C(=O)C1CCN(c2ccccc2)CC1` [Example 153]: 0.234 nM; `Cc1cccc(N2CCC(C(=O)N3CCc4nc(N5CCOCC5)[nH]c4-c4cc(Cl)ccc43)CC2)n1` [Example 67]: 1.35 nM.
Then `NCc1ccccc1N1CCC(C(=O)N2Cc3cccn3Cc3ccccc32)CC1` [Example 177, [1-(2-Aminomethyl-phenyl)-piperidin-4-yl]-(5H,11H-benzo[e]pyrrolo[1,2-a][1,4]diazepin-10-yl)-methanone], with 28.8 nM.
For the compound `Cc1ccccc1N1CCC(C(=O)N2Cc3cccn3Cc3ccccc32)CC1` [Example 159], the Ki is 10.5 nM.
Then `Cn1ncc2c1Nc1ccccc1N(C(=O)C1CCN(c3ccccn3)CC1)C2` [Example 106], with 12.6 nM.
Take `Cc1nc2c([nH]1)-c1cc(Cl)ccc1N(C(=O)C1CCN(c3ccccc3Cl)CC1)CC2` [Example 86]: the Ki is 31.6 nM.
`COc1ccc(N2CCC(C(=O)N3CCc4nc(C)[nH]c4-c4cc(Cl)ccc43)CC2)cc1` [Example 94]: the Ki is 16.2 nM.
In the case of `COc1cccc(N2CCC(C(=O)N3CCc4nc(N5CCOCC5)[nH]c4-c4cc(C)ccc43)CC2)n1` [Example 64], the Ki is 6.31 nM.
As to `CCn1ncc2c1Nc1cc(F)ccc1N(C(=O)C1CCN(c3nccc(C(F)(F)F)n3)CC1)C2` [Example 101, (3-Ethyl-6-fluoro-4,10-dihydro-3H-2,3,4,9-tetraaza-benzo[f]azulen-9-yl)-[1-(4-trifluoromethyl-pyrimidin-2-yl)-piperidin-4-yl]-methanone], the Ki is 575 nM.
Regarding `CCc1nc2c([nH]1)-c1cc(C)ccc1N(C(=O)C1CCN(c3cc(C)ccn3)CC1)CC2` [Example 19], the Ki is 2.34 nM.
As to `Cc1ccc2c(c1)-c1[nH]c(N3CCOCC3)nc1CCN2C(=O)C1CCN(c2ccc(C#N)cn2)CC1` [Example 36], the Ki is 97.7 nM.
As for `Cc1ccc2c(c1)-c1[nH]c(N3CCOCC3)nc1CCN2C(=O)C1CCN(c2ncccc2C)CC1` [Example 2, (9-Methyl-2-morpholin-4-yl-4,5-dihydro-1H-1,3,6-triaza-benzo[e]azulen-6-yl)-(3′-methyl-3,4,5,6-tetrahydro-2H-[1,2′]bipyridinyl-4-yl)-methanone], the Ki was 1.45 nM.
Next, `Cc1ccc(N2CCC(C(=O)N3CCc4nc(C5CC5)[nH]c4-c4cc(C)ccc43)CC2)nc1` [Example 25]: 1.51 nM; `COc1cccc(N2CCC(C(=O)N3CCc4nc(C5CCOCC5)[nH]c4-c4cc(C)ccc43)CC2)n1` [Example 66]: 30.9 nM.
Next, `COc1cccnc1N1CCC(C(=O)N2Cc3cnn(C)c3Nc3cc(Cl)ccc32)CC1` [Example 119]: 19.1 nM.
Next, `COc1cccnc1N1CCC(C(=O)N2CCc3nc(N4CCOCC4)[nH]c3-c3cc(C)ccc32)CC1` [Example 3, (3′-Methoxy-3,4,5,6-tetrahydro-2H-[1,2′]bipyridinyl-4-yl)-(9-methyl-2-morpholin-4-yl-4,5-dihydro-1H-1,3,6-triaza-benzo[e]azulen-6-yl)-methanone]: 0.977 nM; `Cc1ccc2c(c1)Cn1cccc1CN2C(=O)C1CCN(c2ccccn2)CC1` [Example 152]: 0.631 nM.
Regarding `O=C(C1CCN(c2ccccc2)CC1)N1Cc2cccn2Cc2cc(F)ccc21` [Example 151], the Ki is 0.794 nM.
In the case of `Cc1nc2c([nH]1)-c1cc(Cl)ccc1N(C(=O)C1CCN(c3ccc(F)cc3)CC1)CC2` [Example 85], the Ki was 11 nM.
Next, `O=C(C1CCN(c2ccc([N+](=O)[O-])cc2)CC1)N1Cc2cccn2Cc2ccccc21` [Example 174]: 162 nM.
With `Cn1ncc2c1Nc1cc(Cl)ccc1N(C(=O)C1CCN(c3ccccn3)CC1)C2` [Example 115], the Ki was 6.92 nM.
For `Cc1ccc2c(c1)Nc1c(cnn1C)CN2C(=O)C1CCN(c2ccc(C(F)(F)F)cc2)CC1` [Example 133], the Ki was 5.37 nM.
Next, `CCCCc1nc2c([nH]1)CCN(C(=O)C1CCN(c3ccccn3)CC1)c1ccc(C)cc1-2` [Example 26]: 18.2 nM; `COc1cccc(N2CCC(C(=O)N3CCc4nc(C)[nH]c4-c4cc(Cl)ccc43)CC2)c1` [Example 93]: 2.51 nM.
Take `Cc1ccc2c(c1)Nc1c(cnn1C)CN2C(=O)C1CCN(c2ccccn2)CC1` [Example 109]: the Ki is 12.9 nM.
Next, `Cc1ccc2c(c1)Nc1c(cnn1C)CN2C(=O)C1CCN(c2ccc(C)nc2)CC1` [Example 141]: 5.13 nM; `CCc1nc2c([nH]1)-c1cc(Cl)ccc1N(C(=O)C1CCN(c3ccccn3)CC1)CC2` [Example 46]: 13.5 nM.
